According to US6822146B2, “Sulfonylurea-tolerant sunflower line M7” (priority 2000, dated 2004):

Columns and labels:
O. cernua = conditions: preemergence application of a low dose (2 to 6 g/ha), with sunflower tolerance; cited from earlier work
M5M11 = assay: Test B greenhouse phytotoxicity, M5M11; format: in vivo, sunflower; conditions: in vivo
Description: (§1) A greenhouse experiment was conducted to evaluate the spectrum of tolerance of three homozygous resistant mutants to various herbicides inhibiting acetolactate synthase (ALS) as their mode of action. The inbred lines tested were the 5th generation self-pollinated maintainers, M5M7, M5M11 and M5M12, as well as the 4th generation male sterile back-crosses BC4-M5M7, BC4-M5M11 and BC4-M5M12. Treatments of formulated herbicides were applied post-emergence at the 4-leaf stage. Application rates of the test herbicides were chosen to coincide with the rates commonly used in the crops for which they are registered. The application rate of imazethapyr was chosen to match the rate recommended to control parasitic weeds in sunflowers by L. García-Torres et al., Weed Technology 1995, 9, 819-824. Wild type H89 inbred sunflower was not included in this test, because the many of the tested herbicides are known to be efficacious in controlling volunteer sunflower as a weed. Treatments were replicated twice. […] A rating of 0% phytotoxicity means no crop injury.

Orobanche cumana = assay: Test E control of Orobanche cumana in resistant sunflower hybrid; format: in vivo
Description: The effect of the various treatments was evaluated 35 days after sowing. The sunflower roots were cleaned by washing in water, and the presence of Orobanche nodules was determined visually and by weighing root wet mass in comparison to check plants free of Orobanche infestation. […] The nodules caused by Orobanche increased root weight, and a correlation (r=0.7) was found between visual scores and weight measurements. Thus the weighing technique could be used to corroborate visual efficacy scorings. Orobanche emergence was also scored but found to be less useful to evaluate treatment efficiency at the evaluation timing of this test.
(§2) Based on the results from Test D, a modified protocol was developed to include three timings of post-emergence treatment. The hybrid BC4-M5M12 (female parent)×PHA155 restorer line (male parent) described in Test C was used in this test. Various herbicide programs were tested using three replications. […] Seed coatings of these formulated herbicides were applied to 6 kg of seeds in such amount that considering the distribution of the coated seeds in each pot, the herbicide active ingredient (a.i.) application rates per hectare were as indicated.
(§3) The treatments were applied similar to the methods described for Test D. Pre-emergence applications were broadcast only, not soil incorporated. For pre-emergence application, the pots were sprayed using the high rates of the herbicides two days after sowing the sunflower seeds. Post-emergence treatments were applied at the 4-6 leaf stage of sunflower (corresponding to early stage of Orobanche attachment; identified as “T1”), the 6-8 leaf stage of sunflower (corresponding to the mid stage of Orobanche attachment; nodules <5 mm diameter; identified as “T2”) and 8-12 leaf stage of sunflower (corresponding to late stage of Orobanche attachment; identified as “T3”). The mid-stage applications included the high as well as low application rates of each herbicide.
(§4) For comparison were also included in this test other acetolactate synthase-inhibiting herbicides reported in the literature as giving good weed control of Orobanche (L. García-Torres et al., Weed Research 1994, 34, 395-402; L. García-Torres et al., Weed Technology 1995, 9, 819-824; J. Hershenhorn et al., Weed Technology 1998, 12, 108-114).

BC4-M5M12 = assay: Test B greenhouse phytotoxicity, BC4-M5M12; format: in vivo, sunflower; conditions: in vivo
Description: as §1

[1] = system: BC4-M5M12 × PHA155 hybrid; assay: Test E injury to sunflower hybrid; format: in vivo; conditions: in vivo
Description: as §2, §3, §4

M5M7 = assay: Test B greenhouse phytotoxicity, M5M7; format: in vivo, sunflower; conditions: in vivo
Description: as §1

M5M12 = assay: Test B greenhouse phytotoxicity, M5M12; format: in vivo, sunflower; conditions: in vivo
Description: as §1

BC4-M5M11 = assay: Test B greenhouse phytotoxicity, BC4-M5M11; format: in vivo, sunflower; conditions: in vivo
Description: as §1

BC4-M5M7 = assay: Test B greenhouse phytotoxicity, BC4-M5M7; format: in vivo, sunflower; conditions: in vivo
Description: as §1

[2] = system: homozygous progeny of the three mutant sources; format: in vivo, sunflower; conditions: Test B application rates, post-emergence
Description: as §1

'HA89B' seed = assay: Determination of optimum mutagen concentration; format: in vivo, sunflower; conditions: EMS 20 to 40 mM
Description: Batches each consisting of 6000 seeds of ‘HA89B’ were incubated in 0.1 M potassium phosphate buffer (pH 5.6), supplemented with concentrations of EMS between 0 and 80 mM for 18 hours at room temperature, causing the seeds to swell. The seeds were rinsed in sodium thiosulfate for 1 minute to decompose the EMS, then in 5 consecutive water washes to eliminate EMS traces. The overall rinsing procedure lasted 5 hours. Seeds were dried for 2 hours at 25° C. using an airflow drier and then divided into sub-batches of 200 seeds each. To determine the effect of EMS on germination and plant branching, sub-batches were sown in flats right after drying and following 2, 4 and 6 days of storage at 4° C. after drying. Plant branching was used as a visual measure of mutation frequencies. Sub-batches from each EMS concentration were also sown in pots right after drying and grown to maturity to determine effect of EMS treatments on seed setting.

Compound | control of O. cernua (O. cernua) | Maximum Phytotoxicity (M5M11) [%] | relative efficacy in controlling Orobanche (Orobanche cumana; Test E rates, metsulfuron-methyl compared with tribenuron-methyl) | Control (Orobanche cumana; pre-emergence 2 g a.i./ha) [%] | Control (Orobanche cumana; pre-emergence 10 g a.i./ha) [%] | Maximum Phytotoxicity (BC4-M5M12) [%] | Injury [1] [%] | Maximum Phytotoxicity (M5M7) [%] | Maximum Phytotoxicity (M5M12) [%] | Maximum Phytotoxicity (BC4-M5M11) [%] | Maximum Phytotoxicity (BC4-M5M7) [%] | tolerance of the mutants [2] | plants producing viable seed ('HA89B' seed) | plant branching (visual measure of mutation frequencies) ('HA89B' seed; about 12% of plants from untreated seeds branched)
COc1nc(C)nc(NC(=O)NS(=O)(=O)c2ccccc2Cl)n1 [Chlorsulfuron, chlorsulfuron] | 75-85% | 50 | less efficacious in controlling Orobanche | 13 | 58 | 45 | 0 | 47.5 | 45 | 50 | 45 | somewhat sensitive | – | –
CCOS(C)(=O)=O [EMS, ethyl methanesulfonate] | – | – | – | – | – | – | – | – | – | – | – | – | more than half of the plants produced viable seed | more than half of the plants were branched
